{"source": "paper PMC3454376", "about": "“Salidroside Improves Behavioral and Histological Outcomes and Reduces Apoptosis via PI3K/Akt Signaling after Experimental Traumatic Brain Injury” (PLoS ONE, 2012)", "test_system": "mice subjected to controlled cortical impact injury", "test": "Beam walk test after CCI", "assay_type": "in vivo", "description": "All animal procedures were approved by the Animal Research Committee at Cheng Hsin General Hospital (Animal permit number […] 101-08), and all procedures complied with the Guide for the Care and Use of Laboratory Animals published by the US National Institutes of Health (NIH Publication No. 85-23, revised 1996). Animals were housed under a 12-h light/dark cycle and at constant temperature (21-25°C) and humidity (45-50%). They were allowed free access to pellet chow and water. TBI in mice was induced by a CCI injury model as previously described. Briefly, 8-week-old male C57BL/6 mice (weighing 22-25 g) were anesthetized through the use of intraperitoneal injection of sodium pentobarbital (65 mg/kg; Rhone Merieux, Harlow, UK) and placed in a stereotaxic frame. A 5 mm craniotomy was performed over the right parietal cortex, centered on the coronal suture and 0.1 mm lateral to the sagittal suture, and injury to dura was avoided. […] Body temperature was monitored throughout the surgery by a rectal probe; temperature was maintained at 37.0±0.5°C using a heated pad. […] To determine the optimal dose of salidroside, a pilot study was performed using 2 different doses (20 and 50 mg/kg) administered 10 min after injury, and neurological deficits and tissue damage were evaluated as the main outcomes. […]"}
{"molecule": "OC[C@H]1O[C@@H](OCCc2ccc(O)cc2)[C@H](O)[C@@H](O)[C@@H]1O", "note": "[SALD, salidroside]", "values": [{"measurement": "beam walk latency versus vehicle group", "setting": "20 mg/kg ip 10 min after CCI, days 4 and 21, P<0.05 and 0.01", "value": "significant difference"}, {"measurement": "beam walk latency, treatment effect versus vehicle", "setting": "50 mg/kg ip 10 min after CCI, P<0.05", "value": "significant only at day 4"}]}
